Data: PMC6792352, “Limited Chemical Structural Diversity Found to Modulate Thyroid Hormone Receptor in the Tox21 Chemical Library” (Environmental Health Perspectives, 2019)
Structures can show the parent of a compound that is named as a salt. Where two headings read alike, the source gives them in different places.

Tested on: GH3-TRE-Luc cell line
Details: read-out: AC50 (uM) modified / 1000, viability, 1 nM T3 present, 24 h

CCN(CC)C(=S)S [Sodium diethyldithiocarbamate]
CC50 (Tox21_110001=Tox21_112412): 1.18 µM

Oc1cccc2cccnc12 [8-Quinolinol salicylic acid (1:1)]
CC50 (Tox21_110001=Tox21_110005): 10.3 µM

COc1cc(/C=C/C(=O)CC(=O)/C=C/c2ccc(O)c(OC)c2)ccc1O [Curcumin]
CC50 (Tox21_110001=Tox21_110803): 22.1 µM | CC50 (Tox21_110001=Tox21_201116): 26.5 µM

CCCCCCCCCCCCCCn1cc[n+](C)c1 [1-Methyl-3-tetradecylimidazolium chloride]
CC50 (Tox21_110001=Tox21_202660): 8.43 µM

O=C1OC2(c3ccccc31)c1cc(I)c(O)c(I)c1Oc1c2cc(I)c(O)c1I [FD&C Red 3]
CC50 (Tox21_110001=Tox21_202932): 18.4 µM | CC50 (Tox21_110001=Tox21_302085): 23.6 µM

COc1ccc(C(Cl)=C(c2ccc(OC)cc2)c2ccc(OC)cc2)cc1 [Chlorotrianisene]
CC50 (Tox21_110001=Tox21_202361): 13.6 µM

Nc1ccn([C@@H]2O[C@H](CO)[C@@H](O)[C@@H]2O)c(=O)n1 [Cytarabine hydrochloride]
CC50 (Tox21_110001=Tox21_300488): 0.11 µM

Oc1ccc(OCc2ccccc2)cc1 [4-(Benzyloxyl)phenol]
CC50 (Tox21_110001=Tox21_110396): 4.58 µM | CC50 (Tox21_110001=Tox21_201147): 10.2 µM

O=C(O)CS [Ammonium thioglycolate]
CC50 (Tox21_110001=Tox21_202751): 58.7 µM

O=c1c(O)c(-c2ccc(O)c(O)c2)oc2cc(O)cc(O)c12 [Quercetin]
CC50 (Tox21_110001=Tox21_202308): 40.5 µM | CC50 (Tox21_110001=Tox21_300285): 77.2 µM

CC(=O)N1CCN(c2ccc(OC[C@@H]3CO[C@@](Cn4ccnc4)(c4ccc(Cl)cc4Cl)O3)cc2)CC1 (racemic) [Ketoconazole]
CC50 (Tox21_110001=Tox21_300267): 23.7 µM

CN(C)c1ccc(C(=C2C=CC(=[N+](C)C)C=C2)c2ccc(N(C)C)cc2)cc1 [Gentian Violet]
CC50 (Tox21_110001=Tox21_111084): 1.65 µM | CC50 (Tox21_110001=Tox21_201762): 0.893 µM | CC50 (Tox21_110001=Tox21_300571): 0.536 µM

C#C[C@]1(O)CC[C@H]2[C@@H]3CCC4=CCCC[C@@H]4[C@H]3CC[C@@]21C [Lynestrenol]
CC50 (Tox21_110001=Tox21_110319): 17.1 µM | CC50 (Tox21_110001=Tox21_301969): 46.9 µM

CC[C@H]1CN2CCc3cc(OC)c(OC)cc3[C@@H]2C[C@@H]1C[C@H]1NCCc2cc(OC)c(OC)cc21 [Emetine]
CC50 (Tox21_110001=Tox21_110901): 0.0872 µM

Oc1c(Cl)cc(Cl)cc1Sc1cc(Cl)cc(Cl)c1O [Sodium bithionolate]
CC50 (Tox21_110001=Tox21_202791): 7.44 µM

Cc1cc(C(C)(C)C)c(O)c(C(C)(C)C)c1 [Butylated hydroxytoluene]
CC50 (Tox21_110001=Tox21_113537): 42.9 µM | CC50 (Tox21_110001=Tox21_201093): 76.4 µM

CN(Cc1cnc2nc(N)nc(N)c2n1)c1ccc(C(=O)N[C@@H](CCC(=O)O)C(=O)O)cc1 [Methotrexate]
CC50 (Tox21_110001=Tox21_300269): 0.164 µM

Nc1c(S(=O)(=O)O)cc(Br)c2c1C(=O)c1ccccc1C2=O [1-Amino-4-bromo-9,10-dioxo-9,10-dihydroanthracene-2-sulfonic] [1-Amino-4-bromo-9,10-dioxo-9,10-dihydroanthracene-2-sulfonic acid]
CC50 (Tox21_110001=Tox21_301752): 60.1 µM

CCCCCCCCCCCCCC[P+](CCCCCC)(CCCCCC)CCCCCC [Trihexyltetradecylphosphonium bromide]
CC50 (Tox21_110001=Tox21_200809): 5.4 µM

C=C1C(CCl)(CCl)C2(Cl)C(Cl)C(Cl)C1(Cl)C2(Cl)Cl (stereo not shown) [Toxaphene]
CC50 (Tox21_110001=Tox21_111173): 5.43 µM | CC50 (Tox21_110001=Tox21_200912): 23.5 µM

CCCCCCCC[n+]1ccn(C)c1 [1-Methyl-3-octylimidazolium tetrafluoroborate]
CC50 (Tox21_110001=Tox21_200695): 44.3 µM

NCCNc1cccc2ccccc12 [N-(1-Naphthyl)ethylenediamine dihydrochloride]
CC50 (Tox21_110001=Tox21_111184): 10.9 µM | CC50 (Tox21_110001=Tox21_201928): 37 µM | CC50 (Tox21_110001=Tox21_302783): 26 µM

CC[C@H](c1ccc(O)cc1)[C@@H](CC)c1ccc(O)cc1 [meso-Hexestrol]
CC50 (Tox21_110001=Tox21_110377): 13.9 µM | CC50 (Tox21_110001=Tox21_301456): 47 µM

CO[C@H]1C[C@@H]2CC[C@@H](C)[C@@](O)(O2)C(=O)C(=O)N2CCCC[C@H]2C(=O)O[C@H]([C@H](C)C[C@@H]2CC[C@@H](O)[C@H](OC)C2)CC(=O)[C@H](C)/C=C(\C)[C@@H](O)[C@@H](OC)C(=O)[C@H](C)C[C@H](C)/C=C/C=C/C=C/1C [Sirolimus]
CC50 (Tox21_110001=Tox21_110870): 0.00123 µM | CC50 (Tox21_110001=Tox21_112750): 0.00263 µM

CC/C(=C(\c1ccccc1)c1ccc(OCCN(C)C)cc1)c1ccccc1 [Tamoxifen]
CC50 (Tox21_110001=Tox21_201243): 13.9 µM | CC50 (Tox21_110001=Tox21_300539): 8.55 µM

CCCCCCCC[n+]1ccn(C)c1 [1-Methyl-3-octylimidazolium bromide]
CC50 (Tox21_110001=Tox21_202653): 31.6 µM

NC(=O)c1ncn([C@@H]2O[C@H](CO)[C@@H](O)[C@H]2O)n1 [Ribavirin]
CC50 (Tox21_110001=Tox21_110259): 40.1 µM

CCCCCCCCCCn1cc[n+](C)c1 [1-Decyl-3-methylimidazolium hexafluorophosphate]
CC50 (Tox21_110001=Tox21_202624): 11.4 µM

CC(C)(C)NC(=O)[C@@H]1C[C@@H]2CCCC[C@@H]2CN1C[C@@H](O)[C@H](Cc1ccccc1)NC(=O)[C@H](CC(N)=O)NC(=O)c1ccc2ccccc2n1 [Saquinavir mesylate]
CC50 (Tox21_110001=Tox21_111137): 9.01 µM | CC50 (Tox21_110001=Tox21_202533): 27.8 µM

Cn1c(=O)c2c(ncn2C)n(C)c1=O [Caffeine]
CC50 (Tox21_110001=Tox21_201685): 41.2 µM

CCCCCCCC[N+](C)(CCCCCCCC)CCCCCCCC [Methyltrioctylammonium chloride]
CC50 (Tox21_110001=Tox21_302198): 5.04 µM

Cc1ncc[nH]1 [2-Methylimidazole]
CC50 (Tox21_110001=Tox21_111136): 0.0572 µM

Nc1ccccc1N [1,2-Phenylenediamine]
CC50 (Tox21_110001=Tox21_400014): 73.8 µM

O=S(=O)(O)c1ccc2c(N=Nc3ccc(S(=O)(=O)O)c4ccccc34)c(O)c(S(=O)(=O)O)cc2c1 [Amaranth]
CC50 (Tox21_110001=Tox21_112280): 19.3 µM
